Test results reported in patent US11345681B1, “Inhibitors of fibroblast growth factor receptor kinases” (Kinnate Biopharma Inc., priority 2020, dated 2022).

Molecular target: Wild type FGFR2 (Homo sapiens (Human), UniProt P21802)
Assay: FGFR2 kinase assay (fluorescence-based microfluidic mobility shift assay)
Format: biochemical
Conditions: wild type FGFR2 0.06 nM, 100 μM ATP, 80 minutes at room temperature; class symbols

Chain of Wild type FGFR2 (P21802 22-821): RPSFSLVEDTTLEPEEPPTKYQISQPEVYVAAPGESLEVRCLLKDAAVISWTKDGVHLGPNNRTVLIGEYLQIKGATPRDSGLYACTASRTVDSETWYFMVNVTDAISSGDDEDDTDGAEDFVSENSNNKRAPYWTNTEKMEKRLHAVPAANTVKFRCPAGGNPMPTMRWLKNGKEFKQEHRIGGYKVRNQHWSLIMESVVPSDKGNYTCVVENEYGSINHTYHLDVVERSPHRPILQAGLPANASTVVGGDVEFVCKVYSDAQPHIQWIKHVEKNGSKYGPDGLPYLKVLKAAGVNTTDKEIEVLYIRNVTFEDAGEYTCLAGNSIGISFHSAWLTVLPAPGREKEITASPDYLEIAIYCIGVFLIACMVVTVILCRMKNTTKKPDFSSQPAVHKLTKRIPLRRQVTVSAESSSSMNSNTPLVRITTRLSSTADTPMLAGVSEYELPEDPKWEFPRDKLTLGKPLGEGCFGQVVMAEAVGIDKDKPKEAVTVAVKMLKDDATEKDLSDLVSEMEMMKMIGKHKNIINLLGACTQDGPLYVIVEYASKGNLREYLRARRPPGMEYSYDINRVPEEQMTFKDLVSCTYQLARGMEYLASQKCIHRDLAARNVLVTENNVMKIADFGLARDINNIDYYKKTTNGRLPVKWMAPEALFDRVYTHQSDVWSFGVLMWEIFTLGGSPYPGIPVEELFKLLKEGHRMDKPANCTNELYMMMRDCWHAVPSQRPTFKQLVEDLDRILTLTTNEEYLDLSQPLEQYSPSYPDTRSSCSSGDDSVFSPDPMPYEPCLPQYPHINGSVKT

| Structure (SMILES) | IC50 |
| --- | --- |
| C=CC(=O)N1C[C@@H](n2nc(C#Cc3c(F)cc4c(ncn4C4CC4)c3F)c(C(N)=O)c2NC)CC1C (stereo in doubt) [Example 159, 3-[2-(1-Cyclopropyl-4,6-difluoro-1,3-benzodiazol-5-yl)ethynyl]-1-[(3S,5R)-5-methyl-1-(prop-2-enoyl)pyrrolidin-3-yl]-5-(methylamino)pyrazole-4-carboxamide] | ≤ 100 nM |
| C=CC(=O)N1CC[C@H](n2nc(C#Cc3ccc4nc(C)[nH]c4c3)c(C(N)=O)c2NC)C1 [Example 2, (S)-1-(1-acryloylpyrrolidin-3-yl)-3-((2-methyl-1H-benzo[d]imidazol-6-yl)ethynyl)-5-(methylamino)-1H-pyrazole-4-carboxamide] | ≤ 100 nM |
| C=CC(=O)N1C[C@@H](n2nc(C#Cc3ccc4c(c3)nc(C)n4CC)c(C(N)=O)c2NC)C[C@@H]1COC [Example 3, 3-[2-(1-ethyl-2-methyl-1,3-benzodiazol-5-yl)ethynyl]-1-[(3S,5R)-5-(methoxymethyl)-1-(prop-2-enoyl)pyrrolidin-3-yl]-5-(methylamino)pyrazole-4-carboxamide] | ≤ 100 nM |
| C=CC(=O)N1C[C@@H](n2nc(C#Cc3ccc4c(cnn4C)c3)c(C(N)=O)c2NC)C[C@@H]1COC [Example 8] | ≤ 100 nM |
| C=CC(=O)N1C[C@@H](n2nc(C#Cc3ccc4nn(C)cc4c3)c(C(N)=O)c2NC)C[C@@H]1COC [Example 9, 1-((3S,5R)-1-acryloyl-5-(methoxymethyl)pyrrolidin-3-yl)-3-((2-methyl-2H-indazol-5-yl)ethynyl)-5-(methylamino)-1H-pyrazole-4-carboxamide] | 100 to 1000 nM |
| C=CC(=O)N1C[C@@H](n2nc(C#Cc3ccc4c(c3)nc(C(F)(F)F)n4C)c(C(N)=O)c2NC)C[C@@H]1COC [Example 10] | ≤ 100 nM |
| C=CC(=O)N1C[C@@H](n2nc(C#Cc3c(F)cc4c(ncn4C)c3F)c(C(N)=O)c2NC)C[C@@H]1COC [Example 11] | ≤ 100 nM |
| C=CC(=O)N1C[C@@H](n2nc(C#Cc3ccc4c(cnn4CC)c3)c(C(N)=O)c2NC)C[C@@H]1COC [Example 14] | ≤ 100 nM |
| C=CC(=O)N1C[C@@H](n2nc(C#Cc3ccc4nn(CC)cc4c3)c(C(N)=O)c2NC)C[C@@H]1COC [Example 15, 1-((3S,5R)-1-acryloyl-5-(methoxymethyl)pyrrolidin-3-yl)-3-((2-ethyl-2H-indazol-5-yl)ethynyl)-5-(methylamino)-1H-pyrazole-4-carboxamide] | ≤ 100 nM |
| C=CC(=O)N1C[C@@H](n2nc(C#Cc3c(F)cc4c(nc(C)n4CC)c3F)c(C(N)=O)c2NC)C[C@@H]1COC [Example 16, 1-((3S,5R)-1-acryloyl-5-(methoxymethyl)pyrrolidin-3-yl)-3-((1-ethyl-4,6-difluoro-2-methyl-1H-benzo[d]imidazol-5-yl)ethynyl)-5-(methylamino)-1H-pyrazole-4-carboxamide] | ≤ 100 nM |
| C=CC(=O)N1C[C@@H](n2nc(C#Cc3c(F)cc4[nH]c(C)nc4c3F)c(C(N)=O)c2NC)C[C@@H]1COC [Example 17] | ≤ 100 nM |
| C=CC(=O)N1C[C@@H](n2nc(C#Cc3c(F)cc4c(nc(C)n4C)c3F)c(C(N)=O)c2NC)C[C@@H]1COC [Example 18, 1-((3S,5R)-1-acryloyl-5-(methoxymethyl)pyrrolidin-3-yl)-3-((4,6-difluoro-1,2-dimethyl-1H-benzo[d]imidazol-5-yl)ethynyl)-5-(methylamino)-1H-pyrazole-4-carboxamide] | ≤ 100 nM |
| C=CC(=O)N1C[C@@H](n2nc(C#Cc3c(F)cc4c(cnn4C)c3F)c(C(N)=O)c2NC)C[C@@H]1COC [Example 19, 1-((3S,5R)-1-acryloyl-5-(methoxymethyl)pyrrolidin-3-yl)-3-((4,6-difluoro-1-methyl-1H-indazo1-5-yl)ethynyl)-5-(methylamino)-1H-1-pyrazole-4-carboxamide] | ≤ 100 nM |
| C=CC(=O)N1C[C@@H](n2nc(C#Cc3ccc4c(nc(C)n4C)c3F)c(C(N)=O)c2NC)C[C@@H]1COC [Example 20, 1-((3S,5R)-1-acryloyl-5-(pethoxymethyl)pyrrolidin-3-yl)-3-((4-fluoro-1,2-dimethyl-1H-benzo[d]imidazol-5-yl)ethynyl)-5-(methylamino)-1H-pyrazole-4-carboxamide] | ≤ 100 nM |
| C=CC(=O)N1C[C@@H](n2nc(C#Cc3c(F)cc4c(ncn4CC)c3F)c(C(N)=O)c2NC)C[C@@H]1COC [Example 29, 1-((3S,5R)-1-acryloyl-5-(methoxymethyl)pyrrolidin-3-yl)-3-((1-ethyl-4,6-difluoro-1H-benzo[d]imidazol-5-yl)ethynyl)-5-(methylamino)-1H-pyrazole-4-carboxamide] | ≤ 100 nM |
| C=CC(=O)N1C[C@@H](n2nc(C#Cc3c(F)cc4c(ncn4C(F)F)c3F)c(C(N)=O)c2NC)C[C@@H]1COC [Example 30, 1-((3S,5R)-1-acryloyl-5-(methoxymethyl)pyrrolidin-3-yl)-3-((1-(difluoromethyl)-4,6-difluoro-1H-benzo[d]imidazol-5-yl)ethynyl)-5-(methylamino)-1H-pyrazole-4-carboxamide] | ≤ 100 nM |

More lines, now with the values ahead:

| IC50 | Structure (SMILES) |
| --- | --- |
| ≤ 100 nM | C=CC(=O)N1C[C@@H](n2nc(C#Cc3cc4ncn([C@@H]5CC5(F)F)c4cc3Cl)c(C(N)=O)c2NC)C[C@@H]1COC (single isomer, unassigned) [Example 279] |
| ≤ 100 nM | C=CC(=O)N1C[C@@H](n2nc(C#Cc3cc4ncn([C@H]5CC5(F)F)c4cc3Cl)c(C(N)=O)c2NC)C[C@@H]1COC (single isomer, unassigned) [Example 280] |
| ≤ 100 nM | C=CC(=O)N1C[C@@H](n2nc(C#Cc3cc4c(cc3Cl)ncn4[C@@H]3CC3(F)F)c(C(N)=O)c2NC)C[C@@H]1COC (single isomer, unassigned) [Example 288] |
| 100 to 1000 nM | C=CC(=O)N1C[C@@H](n2nc(C#Cc3ccc4cnoc4c3)c(C(N)=O)c2NC)CC1COC (stereo in doubt) [Example 26, 1-((3S,5S)-1-acryloyl-5-(methoxymethyl)pyrrolidin-3-yl)-3-(benzo[d]isoxazol-6-ylethynyl)-5-(methylamino)-1H-pyrazole-4-carboxamide] |
| ≤ 100 nM | C=CC(=O)N1C[C@@H](n2nc(C#Cc3c(F)cc4c(ncn4CC(F)(F)F)c3F)c(C(N)=O)c2NC)CC1COC (stereo in doubt) [Example 34, 1-((3S,5S)-1-acryloyl-5-(methoxymethyl)pyrrolidin-3-yl)-3-((4,6-difluoro-1-(2,2,2-trifluoroethyl)-1H-benzo[d]imidazol-5-yl)ethynyl)-5-(methylamino)-1H-pyrazole-4-carboxamide] |
| ≤ 100 nM | C#CC(=O)N1CC[C@H](n2nc(C#Cc3cc4ncn(C5CC5)c4cc3F)c(C(N)=O)c2NC)C1 (stereo in doubt) [Example 188, 3-[2-(1-Cyclopropyl-6-fluoro-1,3-benzodiazol-5-yl)ethynyl]-5 (methylamino)-1-[1-(prop-2-ynoyl)pyrrolidin-3-yl]pyrazole-4-carboxamide] |
| ≤ 100 nM | C=CC(=O)N1C[C@@H](n2nc(C#Cc3ccc4c(nc(C)n4CC)c3F)c(C(N)=O)c2NC)C[C@@H]1COC [Example 21, 1-((3S,5R)-1-acryloyl-5-(methoxymethyl)pyrrolidin-3-yl)-3-((1-ethyl-4-fluoro-2-methyl-1H-benzo[d]imidazol-5-yl)ethynyl)-5-(methylamino)-1H-pyrazole-4-carboxamide] |
| ≤ 100 nM | C=CC(=O)N1C[C@@H](n2nc(C#Cc3cnc4c(c3)nc(C)n4CC)c(C(N)=O)c2NC)C[C@@H]1COC [Example 22, 1-((3S,5R)-1-acryloyl-5-(methoxymethyl)pyrrolidin-3-yl)-3-((3-ethyl-2-methyl-3H-imidazo[4,5-b]pyridin-6-yl)ethynyl)-5-(methylamino)-1H-pyrazole-4-carboxamide] |
| ≤ 100 nM | C=CC(=O)N1C[C@@H](n2nc(C#Cc3cnc4c(c3)ncn4C)c(C(N)=O)c2NC)C[C@@H]1COC [Example 23, 1-((3S,5R)-1-acryloyl-5-(methoxymethyl)pyrrolidin-3-yl)-3-((3-methyl-3H-imidazo[4,5-b]pyridin-6-yl)ethynyl)-5-(methylamino)-1H-pyrazole—4-carboxamide] |
| 100 to 1000 nM | C=CC(=O)N1C[C@@H](n2nc(C#Cc3cc4nc(C)n(CC)c4cc3C#N)c(C(N)=O)c2NC)C[C@@H]1COC [Example 24, 1-((3S,5R)-1-acryloyl-5-(methoxymethyl)pyrrolidin-3-yl)-3-((6-cyano-1-ethyl-2-methyl-1H-benzo[d]imidazol-5-yl)ethynyl)-5-(methylamino)-1H-pyrazole-4-carboxamide] |
| ≤ 100 nM | C=CC(=O)N1C[C@@H](n2nc(C#Cc3ccc4c(c3)nc(C3CC3)n4CC)c(C(N)=O)c2NC)C[C@@H]1COC [Example 25, 1-((3S,5R)-1-acryloyl-5-(methoxymethyl)pyrrolidin-3-yl)-3-((2-cyclopropyl-1-ethyl-1H-benzo[d]imidazol-5-yl)ethynyl)-5-(methylamino)-1H-pyrazole-4-carboxamide] |
| ≤ 100 nM | C=CC(=O)N1C[C@@H](n2nc(C#Cc3ccc4c(c3)nc(C(F)(F)F)n4CC)c(C(N)=O)c2NC)C[C@@H]1COC [Example 27, 1-((3S,5R)-1-acryloyl-5-(methoxymethyl)pyrrolidin-3-yl)-3-((1-ethyl-2-(trifluoromethyl)-1H-benzo[d]imidazol-5-yl)ethynyl)-5-(methylamino)-1H-pyrazole-4-carboxamide] |
| ≤ 100 nM | C=CC(=O)N1C[C@@H](n2nc(C#Cc3cc4nc(C)n(C)c4cc3F)c(C(N)=O)c2NC)C[C@@H]1COC [Example 28, 1-((3S,5R)-1-acryloyl-5-(methoxymethyl)pyrrolidin-3-yl)-3-((6-fluoro-1,2-dimethyl-1H-benzo[d]imidazol-5-yl)ethynyl)-5-(methylamino)-1H-pyrazole-4-carboxamide] |
| ≤ 100 nM | C=CC(=O)N1C[C@@H](n2nc(C#Cc3cc4ncn(CC)c4cc3F)c(C(N)=O)c2NC)C[C@@H]1COC [Example 32, 1-((3S,5R)-1-acryloyl-5-(methoxymethyl)pyrrolidin-3-yl)-3-((1-ethyl-6-fluoro-1H-benzo[d]imidazol-5-yl)ethynyl)-5-(methylamino)-1H-pyrazole-4-carboxamide] |

Same assay, conditions: wild type FGFR2 0.06 nM, 100 μM ATP, 80 minutes at room temperature; given as numeric bound

| IC50 | Structure (SMILES) |
| --- | --- |
| > 500 nM | C=CC(=O)N1C[C@@H](n2nc(C#Cc3cc4c(cc3Cl)ncn4[C@H]3CC3(F)F)c(C(N)=O)c2NC)C[C@@H]1COC (single isomer, unassigned) [Example 289] |
